Data from US11999727B2 (Tango Therapeutics, Inc., priority 2020, dated 2024).

Columns and labels:
[1] = target: T1, PRMT5 (Homo sapiens, UniProt O14744); experiment: PRMT5 biochemical IC50 assay with SAM as cofactor; settings: PRMT5, SAM as cofactor; read-out: SAM IC50
T1 construct: purchased Viva (custom protein)

[2] = target: T1, PRMT5; experiment: PRMT5 biochemical IC50 assay with MTA as cofactor; settings: PRMT5, MTA as cofactor; read-out: MTA IC50
[3] = target: T1, PRMT5; experiment: PRMT5 biochemical IC50 assay with no cofactor; settings: PRMT5, no cofactor; read-out: No Cofactor/rel IC50
Text: Table 1 indicates IC50 values (μM) against PRMT5 for exemplary compounds in the presence of SAM as cofactor, with no cofactor, and with MTA as cofactor, respectively (columns 4-6). […] Ki values can be calculated from the IC50 values as described in the Examples section. As detailed in the Examples section, for the assay performed in the presence of SAM, IC50=Ki×1.5 (Ki=IC50/1.5).

[4] = tested on: HAP1 MTAP-deleted cell line; experiment: SDMA in-cell western assay, HAP1 MTAP-deleted; assay type: cell-based; settings: for IC50: Homo sapiens, HAP1, SDMA in-cell western, HAP1 MTAP-deleted, read-out: HAP 1 MTAP deleted IC50; for MTAP intact/deleted ratio: IC50 ratio HAP1 MTAP-intact / HAP1 MTAP-deleted, SDMA in-cell western
How it was run: (§1)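 IC50 values come from SDMA signal quantified by in-cell western in two HAP1 lines, one with native MTAP levels and one lacking MTAP.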

[5] = tested on: HAP1 MTAP-intact cell line; experiment: SDMA in-cell western assay, HAP1 MTAP-intact; assay type: cell-based; settings: Homo sapiens, HAP1, SDMA in-cell western, HAP1 MTAP-intact; read-out: MTAP HAP1 intact IC50
How it was run: as §1

[6] = tested on: HAP1 MTAP-deleted cell line; experiment: Viability assay, MTAP-deleted cell line; assay type: cell-based; settings: Homo sapiens, HAP1, viability IC50, MTAP-deleted cell line; read-out: HAP1 MTAP deleted viability
Text: Table 1 additionally indicates IC50 values in a viability assay for the MTAP-deleted cell line (column 10), indicating the effect of treatment with compound on cell survival.

T1 sequence (O14744 whole entry): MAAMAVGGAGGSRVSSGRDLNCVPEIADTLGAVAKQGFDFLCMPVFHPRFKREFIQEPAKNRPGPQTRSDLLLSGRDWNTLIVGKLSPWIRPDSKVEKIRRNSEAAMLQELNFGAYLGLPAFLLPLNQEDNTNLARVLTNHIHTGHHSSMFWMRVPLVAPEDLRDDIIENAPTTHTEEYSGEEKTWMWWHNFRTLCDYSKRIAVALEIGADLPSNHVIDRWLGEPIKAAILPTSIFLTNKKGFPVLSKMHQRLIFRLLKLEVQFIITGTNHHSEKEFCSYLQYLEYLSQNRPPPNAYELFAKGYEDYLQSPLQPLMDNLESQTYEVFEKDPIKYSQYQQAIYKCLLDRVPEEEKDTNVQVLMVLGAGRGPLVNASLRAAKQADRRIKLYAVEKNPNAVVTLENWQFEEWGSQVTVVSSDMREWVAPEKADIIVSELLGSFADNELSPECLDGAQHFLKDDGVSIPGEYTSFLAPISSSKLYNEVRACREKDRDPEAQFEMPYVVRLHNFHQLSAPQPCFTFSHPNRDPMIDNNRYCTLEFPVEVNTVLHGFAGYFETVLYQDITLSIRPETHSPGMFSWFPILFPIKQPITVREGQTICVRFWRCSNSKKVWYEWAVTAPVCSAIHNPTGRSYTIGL
T1 sequence (Q9BQA1 whole entry partner): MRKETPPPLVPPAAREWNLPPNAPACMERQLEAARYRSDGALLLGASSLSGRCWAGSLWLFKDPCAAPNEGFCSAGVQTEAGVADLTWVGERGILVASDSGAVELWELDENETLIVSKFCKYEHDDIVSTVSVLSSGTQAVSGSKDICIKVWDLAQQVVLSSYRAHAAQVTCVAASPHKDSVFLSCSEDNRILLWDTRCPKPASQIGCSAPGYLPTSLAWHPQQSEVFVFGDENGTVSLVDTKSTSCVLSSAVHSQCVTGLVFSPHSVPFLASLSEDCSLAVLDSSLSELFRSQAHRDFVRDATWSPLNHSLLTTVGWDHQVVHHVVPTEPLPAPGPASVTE

C[C@@H]1CC[C@@H](c2ccc3[nH]c(=O)[nH]c3c2)N(C(=O)C(=O)Nc2cncc(C(N)=O)c2)C1 (racemic) [Compound 623, rac-5-[[2-[(2R,5S)-5-methyl-2-(2-oxo-1,3-dihydrobenzimidazol-5-yl)-1-piperidyl]-2-oxo-acetyl]amino]pyridine-3-carboxamide]
IC50 [1]: 50 to 500 nM | IC50 [2]: 50 to 500 nM | IC50 [3]: 50 to 500 nM | IC50 [4]: 100 to 1000 nM | MTAP intact/deleted ratio [4]: A (an IC50 ratio greater than or equal to 10 fold) | IC50 [5]: > 1000 nM | IC50 [6]: > 10000 nM

Cc1ncc(NC(=O)C(=O)N2C[C@H](C)CC[C@H]2c2ccc3c(c2)CCC(=O)N3)cc1Cl (racemic) [Compound 639, N-(5-Chloro-6-methyl-3-pyridyl)-2-[(2R,5S)-5-methyl-2-(2-oxo-3,4-dihydro-1H-quinolin-6-yl)-1-piperidyl]-2-oxo-acetamide]
IC50 [1]: 50 to 500 nM | IC50 [2]: 50 to 500 nM | IC50 [3]: 50 to 500 nM | IC50 [4]: < 100 nM | MTAP intact/deleted ratio [4]: A (an IC50 ratio greater than or equal to 10 fold) | IC50 [5]: > 1000 nM | IC50 [6]: 1000 to 10000 nM

Cc1cc(NC(=O)C(=O)N2CC[C@@H](C)C[C@H]2c2ccccc2)cnc1N (racemic) [Compound 640, N-(6-amino-5-methyl-3-pyridyl)-2-[(2R,4S)-4-methyl-2-phenyl-1-piperidyl]-2-oxo-acetamide]
IC50 [1]: 50 to 500 nM | IC50 [2]: 50 to 500 nM | IC50 [3]: 50 to 500 nM | IC50 [4]: 100 to 1000 nM | MTAP intact/deleted ratio [4]: A (an IC50 ratio greater than or equal to 10 fold) | IC50 [5]: > 1000 nM | IC50 [6]: 1000 to 10000 nM

Cc1cc(NC(=O)C(=O)N2C[C@H](C)CC[C@H]2c2ccc3c(c2)CCC(=O)N3)cnc1C(F)F (racemic) [Compound 641, N-[6-(Difluoromethyl)-5-methyl-3-pyridyl]-2-[(2S,5R)-5-methyl-2-(2-oxo-3,4-dihydro-1H-quinolin-6-yl)-1-piperidyl]-2-oxo-acetamide]
IC50 [1]: 50 to 500 nM | IC50 [2]: 50 to 500 nM | IC50 [3]: 50 to 500 nM | IC50 [4]: 100 to 1000 nM | IC50 [5]: > 1000 nM | IC50 [6]: 1000 to 10000 nM

CCc1cc([C@@H]2CC[C@@H](C)CN2C(=O)C(=O)Nc2cncc(C(N)=O)c2)ccc1O (racemic) [Compound 642, 5-[[2-[(2R,5S)-2-(3-Ethyl-4-hydroxy-phenyl)-5-methyl-1-piperidyl]-2-oxo-acetyl]amino]pyridine-3-carboxamide]
IC50 [1]: 50 to 500 nM | IC50 [2]: 50 to 500 nM | IC50 [3]: 50 to 500 nM | IC50 [4]: < 100 nM | MTAP intact/deleted ratio [4]: A (an IC50 ratio greater than or equal to 10 fold) | IC50 [5]: > 1000 nM | IC50 [6]: < 1000 nM

Cc1cc(NC(=O)C(=O)N2C[C@H](C)CC[C@H]2c2ccc(S(C)(=O)=O)cc2)cnc1N (racemic) [Compound 643, N-(6-amino-5-methyl-3-pyridyl)-2-[(2R,5S)-5-methyl-2-(4-methylsulfonylphenyl)-1-piperidyl]-2-oxo-acetamide]
IC50 [1]: 50 to 500 nM | IC50 [2]: 50 to 500 nM | IC50 [3]: 50 to 500 nM | IC50 [4]: 100 to 1000 nM | MTAP intact/deleted ratio [4]: C (an IC50 ratio of less than 3 fold) | IC50 [5]: > 1000 nM | IC50 [6]: 1000 to 10000 nM

Cc1cc(NC(=O)C(=O)N2C[C@H](C)CC[C@H]2c2ccc(C(N)=O)s2)cnc1N (racemic) [Compound 644, 5-[(2S,5R)-1-[2-[(6-amino-5-methyl-3-pyridyl)amino]-2-oxo-acetyl]-5-methyl-2-piperidyl]thiophene-2-carboxamide]
IC50 [1]: 50 to 500 nM | IC50 [2]: 50 to 500 nM | IC50 [3]: 50 to 500 nM | IC50 [4]: < 100 nM | MTAP intact/deleted ratio [4]: A (an IC50 ratio greater than or equal to 10 fold) | IC50 [5]: 100 to 1000 nM | IC50 [6]: < 1000 nM

Cc1cc(NC(=O)C(=O)N2C[C@H](C)CC[C@H]2c2cccc(S(C)(=O)=O)c2)cnc1C (racemic) [Compound 648, N-(5,6-dimethyl-3-pyridyl)-2-[(2R,5S)-5-methyl-2-(3-methylsulfonylphenyl)-1-piperidyl]-2-oxo-acetamide]
IC50 [1]: 50 to 500 nM | IC50 [2]: 50 to 500 nM | IC50 [3]: 50 to 500 nM | IC50 [4]: > 1000 nM | MTAP intact/deleted ratio [4]: B (an IC50 ratio greater than or equal to 3 fold but lower than 10 fold) | IC50 [5]: > 1000 nM | IC50 [6]: > 10000 nM

Cc1cc(NC(=O)C(=O)N2C[C@H](C)CC[C@H]2c2ccc(S(C)(=O)=O)cc2)cnc1C (racemic) [Compound 649, N-(5,6-dimethyl-3-pyridyl)-2-[(2R,5S)-5-methyl-2-(4-methylsulfonylphenyl)-1-piperidyl]-2-oxo-acetamide]
IC50 [1]: > 500 nM | IC50 [2]: 50 to 500 nM | IC50 [3]: 50 to 500 nM | IC50 [4]: > 1000 nM | MTAP intact/deleted ratio [4]: B (an IC50 ratio greater than or equal to 3 fold but lower than 10 fold) | IC50 [5]: > 1000 nM | IC50 [6]: > 10000 nM

C[C@@H]1CC[C@@H](c2ccc(S(N)(=O)=O)cc2)N(C(=O)C(=O)Nc2cncc(C(N)=O)c2)C1 (racemic) [Compound 651, rac 5-[[2-[(2S,5R)-5-methyl-2-(4-sulfamoylphenyl)-1-piperidyl]-2-oxo-acetyl]amino]pyridine-3-carboxamide]
IC50 [1]: 50 to 500 nM | IC50 [2]: 50 to 500 nM | IC50 [3]: 50 to 500 nM | IC50 [4]: > 1000 nM | MTAP intact/deleted ratio [4]: C (an IC50 ratio of less than 3 fold) | IC50 [5]: > 1000 nM | IC50 [6]: > 10000 nM

CNS(=O)(=O)c1ccc([C@@H]2CC[C@@H](C)CN2C(=O)C(=O)Nc2cncc(C(N)=O)c2)cc1 (racemic) [Compound 652, rac 5-[[2-[(2S,5R)-5-methyl-2-[4-(methylsulfamoyl)phenyl]-1-piperidyl]-2-oxo-acetyl]amino]pyridine-3-carboxamide]
IC50 [1]: 50 to 500 nM | IC50 [2]: 50 to 500 nM | IC50 [3]: 50 to 500 nM | IC50 [4]: > 1000 nM | MTAP intact/deleted ratio [4]: C (an IC50 ratio of less than 3 fold) | IC50 [5]: > 1000 nM | IC50 [6]: > 10000 nM

Cc1cc(NC(=O)C(=O)N2C[C@H](C)CC[C@H]2c2ccc(N)cn2)cnc1N (racemic) [Compound 658, N-(6-amino-5-methyl-3-pyridyl)-2-[2-(5-amino-2-pyridyl)-5-methyl-1-piperidyl]-2-oxo-acetamide]
IC50 [1]: 50 to 500 nM | IC50 [2]: 50 to 500 nM | IC50 [3]: 50 to 500 nM | IC50 [4]: 100 to 1000 nM | MTAP intact/deleted ratio [4]: A (an IC50 ratio greater than or equal to 10 fold) | IC50 [5]: > 1000 nM | IC50 [6]: > 10000 nM

C[C@@H]1CC[C@@H](c2cccc(S(N)(=O)=O)c2)N(C(=O)C(=O)Nc2cncc(C(N)=O)c2)C1 (racemic) [Compound 661, 5-(2-(5-methyl-2-(3-sulfamoylphenyl)piperidin-1-yl)-2-oxoacetamido)nicotinamide]
IC50 [1]: 50 to 500 nM | IC50 [2]: < 50 nM | IC50 [3]: 50 to 500 nM | IC50 [4]: > 1000 nM | MTAP intact/deleted ratio [4]: B (an IC50 ratio greater than or equal to 3 fold but lower than 10 fold) | IC50 [5]: > 1000 nM | IC50 [6]: > 10000 nM

Cc1cc(NC(=O)C(=O)N2C[C@H](C)CC[C@H]2c2ccc(S(N)(=O)=O)cc2)cnc1N (racemic) [Compound 662, N-(6-amino-5-methyl-3-pyridyl)-2-[(2S,5R)-5-methyl-2-(4-sulfamoylphenyl)-1-piperidyl]-2-oxo-acetamide]
IC50 [1]: 50 to 500 nM | IC50 [2]: 50 to 500 nM | IC50 [3]: 50 to 500 nM | IC50 [4]: 100 to 1000 nM | MTAP intact/deleted ratio [4]: A (an IC50 ratio greater than or equal to 10 fold) | IC50 [5]: > 1000 nM | IC50 [6]: > 10000 nM

C[C@@H]1CC[C@@H](c2ccccc2C#N)N(C(=O)C(=O)Nc2cncc(C(N)=O)c2)C1 (racemic) [Compound 664, 5-[[2-[(2R,5S)-2-(2-Cyanophenyl)-5-methyl-1-piperidyl]-2-oxo-acetyl]amino]pyridine-3-carboxamide]
IC50 [1]: > 500 nM | IC50 [2]: 50 to 500 nM | IC50 [3]: > 500 nM | IC50 [4]: > 1000 nM | MTAP intact/deleted ratio [4]: B (an IC50 ratio greater than or equal to 3 fold but lower than 10 fold) | IC50 [5]: > 1000 nM | IC50 [6]: > 10000 nM

CNS(=O)(=O)c1cccc([C@@H]2CC[C@@H](C)CN2C(=O)C(=O)Nc2cncc(C(N)=O)c2)c1 (racemic) [Compound 666, 5-[[2-[(2S,5R)-5-methyl-2-[3-(methylsulfamoyl)phenyl]-1-piperidyl]-2-oxo-acetyl]amino]pyridine-3-carboxamide]
IC50 [1]: 50 to 500 nM | IC50 [2]: < 50 nM | IC50 [3]: 50 to 500 nM | IC50 [4]: > 1000 nM | IC50 [5]: > 1000 nM | IC50 [6]: > 10000 nM

Cc1cc(NC(=O)C(=O)N2C[C@H](C)CC[C@H]2c2cccc(S(C)(=O)=O)c2)cnc1N (racemic) [Compound 667, N-(6-amino-5-methyl-3-pyridyl)-2-[(2R,5S)-5-methyl-2-(3-methylsulfonylphenyl)-1-piperidyl]-2-oxo-acetamide]
IC50 [1]: 50 to 500 nM | IC50 [2]: 50 to 500 nM | IC50 [3]: 50 to 500 nM | IC50 [4]: 100 to 1000 nM | MTAP intact/deleted ratio [4]: A (an IC50 ratio greater than or equal to 10 fold) | IC50 [5]: > 1000 nM | IC50 [6]: 1000 to 10000 nM
